How the values were obtained:
[1] = target: Chromodomain-helicase-DNA-binding protein 4 (Homo sapiens, UniProt Q14839); assay: Measurement of the ATPase catalytic activity using the ADP-Glo detection ([…]); format: functional
[2] = target: T1, Dual specificity tyrosine-phosphorylation-regulated kinase 2 (Homo sapiens) (UniProt Q92630); assay: DYRK2 SGC Tm panel (DSF); conditions: for ΔTm: Compound concentration 10.0 uM
T1 sequence (whole entry): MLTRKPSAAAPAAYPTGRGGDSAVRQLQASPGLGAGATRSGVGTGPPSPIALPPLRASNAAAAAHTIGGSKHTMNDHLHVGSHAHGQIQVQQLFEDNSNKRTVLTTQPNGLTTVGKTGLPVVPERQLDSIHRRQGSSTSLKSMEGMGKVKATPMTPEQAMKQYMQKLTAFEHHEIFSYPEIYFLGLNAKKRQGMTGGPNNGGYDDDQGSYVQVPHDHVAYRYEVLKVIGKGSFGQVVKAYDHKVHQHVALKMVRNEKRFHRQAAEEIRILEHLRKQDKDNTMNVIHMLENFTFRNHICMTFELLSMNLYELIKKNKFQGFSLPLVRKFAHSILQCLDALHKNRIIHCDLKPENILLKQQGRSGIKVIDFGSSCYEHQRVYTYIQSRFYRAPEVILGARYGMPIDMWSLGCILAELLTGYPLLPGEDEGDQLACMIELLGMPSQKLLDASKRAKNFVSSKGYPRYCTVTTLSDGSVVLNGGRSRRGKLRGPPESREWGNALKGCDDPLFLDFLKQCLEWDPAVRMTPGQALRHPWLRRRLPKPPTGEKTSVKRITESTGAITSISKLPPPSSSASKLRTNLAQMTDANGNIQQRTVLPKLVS

[3] = target: Casein kinase II subunit alpha' (Homo sapiens) (UniProt P19784); assay: CSNK2A2A SGC Tm panel (DSF)
Casein kinase II subunit alpha' (Homo sapiens), sequence (P19784 whole entry, looked up): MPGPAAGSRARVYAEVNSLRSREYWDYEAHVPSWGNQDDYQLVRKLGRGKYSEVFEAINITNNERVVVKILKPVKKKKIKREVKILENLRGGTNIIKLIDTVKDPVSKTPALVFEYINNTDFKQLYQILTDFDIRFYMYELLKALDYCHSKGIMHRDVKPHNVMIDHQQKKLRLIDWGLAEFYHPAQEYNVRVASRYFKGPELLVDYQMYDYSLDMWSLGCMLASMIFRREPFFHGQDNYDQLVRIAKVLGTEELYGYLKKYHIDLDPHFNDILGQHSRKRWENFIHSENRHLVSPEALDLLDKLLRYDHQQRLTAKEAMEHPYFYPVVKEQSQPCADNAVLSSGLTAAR

[4] = target: T2, Cyclin-G-associated kinase (Homo sapiens) (UniProt O14976); assay: GAK SGC Tm panel (DSF); conditions: for ΔTm: Compound concentration 10.0 uM
T2 sequence (whole entry): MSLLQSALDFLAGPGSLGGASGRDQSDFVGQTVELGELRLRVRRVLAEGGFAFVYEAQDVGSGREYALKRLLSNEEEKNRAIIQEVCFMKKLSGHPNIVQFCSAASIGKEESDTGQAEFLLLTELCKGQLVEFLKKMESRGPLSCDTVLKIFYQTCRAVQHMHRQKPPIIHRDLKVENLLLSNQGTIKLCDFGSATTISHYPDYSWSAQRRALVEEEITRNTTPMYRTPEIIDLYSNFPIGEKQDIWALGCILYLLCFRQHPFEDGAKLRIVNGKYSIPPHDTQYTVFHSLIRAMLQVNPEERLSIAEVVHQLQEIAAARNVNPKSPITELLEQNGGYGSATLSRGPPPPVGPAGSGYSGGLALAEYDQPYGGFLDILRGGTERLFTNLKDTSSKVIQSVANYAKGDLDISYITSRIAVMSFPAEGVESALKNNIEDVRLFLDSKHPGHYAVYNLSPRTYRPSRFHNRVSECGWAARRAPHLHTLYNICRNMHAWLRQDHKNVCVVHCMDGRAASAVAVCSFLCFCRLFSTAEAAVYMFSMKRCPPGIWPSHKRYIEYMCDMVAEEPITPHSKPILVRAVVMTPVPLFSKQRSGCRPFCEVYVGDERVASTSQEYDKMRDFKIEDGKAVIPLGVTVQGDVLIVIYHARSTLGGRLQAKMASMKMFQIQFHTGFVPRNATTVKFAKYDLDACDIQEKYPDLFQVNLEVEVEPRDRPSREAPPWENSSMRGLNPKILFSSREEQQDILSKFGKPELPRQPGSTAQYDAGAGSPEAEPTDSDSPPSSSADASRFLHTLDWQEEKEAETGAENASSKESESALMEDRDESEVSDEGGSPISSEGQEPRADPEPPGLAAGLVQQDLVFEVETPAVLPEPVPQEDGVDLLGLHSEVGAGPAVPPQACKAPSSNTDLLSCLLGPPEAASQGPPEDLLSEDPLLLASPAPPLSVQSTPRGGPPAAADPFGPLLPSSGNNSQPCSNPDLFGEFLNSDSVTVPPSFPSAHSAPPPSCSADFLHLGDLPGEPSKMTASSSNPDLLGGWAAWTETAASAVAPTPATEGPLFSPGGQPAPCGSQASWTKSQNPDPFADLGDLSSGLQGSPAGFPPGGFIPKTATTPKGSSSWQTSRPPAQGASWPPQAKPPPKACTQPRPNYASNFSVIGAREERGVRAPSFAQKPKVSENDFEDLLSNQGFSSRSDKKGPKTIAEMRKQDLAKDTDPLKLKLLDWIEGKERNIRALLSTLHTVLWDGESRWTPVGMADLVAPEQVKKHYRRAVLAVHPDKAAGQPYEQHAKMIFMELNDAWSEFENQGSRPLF

[5] = target: Serine/threonine-protein kinase pim-3 (Homo sapiens) (UniProt Q86V86); assay: PIM3 SGC Tm panel (DSF); conditions: for ΔTm: Compound concentration 10.0 uM
[6] = target: T3, Dual specificity mitogen-activated protein kinase kinase 7 (Homo sapiens) (UniProt O14733); assay: MAP2K7 SGC Tm panel (DSF); conditions: for ΔTm: Compound concentration 10.0 uM
T3 sequence (whole entry): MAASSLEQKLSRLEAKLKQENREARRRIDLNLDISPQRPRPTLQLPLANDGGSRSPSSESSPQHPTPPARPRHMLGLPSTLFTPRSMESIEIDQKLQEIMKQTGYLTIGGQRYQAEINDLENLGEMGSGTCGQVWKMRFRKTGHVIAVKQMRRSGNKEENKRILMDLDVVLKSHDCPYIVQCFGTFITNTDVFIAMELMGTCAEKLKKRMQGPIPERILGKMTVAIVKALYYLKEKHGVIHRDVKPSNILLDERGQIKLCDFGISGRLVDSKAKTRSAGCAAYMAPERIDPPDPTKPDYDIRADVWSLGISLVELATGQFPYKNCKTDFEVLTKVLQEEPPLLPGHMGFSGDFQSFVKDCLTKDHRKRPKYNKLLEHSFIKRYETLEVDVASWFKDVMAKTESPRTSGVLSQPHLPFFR

[7] = target: 5-hydroxytryptamine receptor 7 (Homo sapiens) (UniProt P34969); conditions: Compound concentration 10.0 uM
5-hydroxytryptamine receptor 7 (Homo sapiens), sequence (P34969 whole entry): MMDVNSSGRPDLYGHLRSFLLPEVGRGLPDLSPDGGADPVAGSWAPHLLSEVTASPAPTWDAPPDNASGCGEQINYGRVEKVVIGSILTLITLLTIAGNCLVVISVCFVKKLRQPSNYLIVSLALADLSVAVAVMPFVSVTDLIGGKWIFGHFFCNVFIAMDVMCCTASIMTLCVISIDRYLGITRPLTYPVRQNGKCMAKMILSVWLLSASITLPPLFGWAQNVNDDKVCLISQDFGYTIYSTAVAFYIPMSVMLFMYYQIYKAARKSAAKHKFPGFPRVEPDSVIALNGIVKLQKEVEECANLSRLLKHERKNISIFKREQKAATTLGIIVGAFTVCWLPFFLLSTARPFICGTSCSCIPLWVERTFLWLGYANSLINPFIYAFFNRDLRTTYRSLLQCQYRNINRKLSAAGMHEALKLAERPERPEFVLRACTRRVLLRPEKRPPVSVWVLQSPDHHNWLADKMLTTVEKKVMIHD

[8] = target: Histamine H4 receptor (Homo sapiens) (UniProt Q9H3N8); conditions: Compound concentration 10.0 uM
[9] = target: Beta-3 adrenergic receptor (Homo sapiens) (UniProt P13945); conditions: Compound concentration 10.0 uM
Beta-3 adrenergic receptor (Homo sapiens), sequence (P13945 whole entry, looked up): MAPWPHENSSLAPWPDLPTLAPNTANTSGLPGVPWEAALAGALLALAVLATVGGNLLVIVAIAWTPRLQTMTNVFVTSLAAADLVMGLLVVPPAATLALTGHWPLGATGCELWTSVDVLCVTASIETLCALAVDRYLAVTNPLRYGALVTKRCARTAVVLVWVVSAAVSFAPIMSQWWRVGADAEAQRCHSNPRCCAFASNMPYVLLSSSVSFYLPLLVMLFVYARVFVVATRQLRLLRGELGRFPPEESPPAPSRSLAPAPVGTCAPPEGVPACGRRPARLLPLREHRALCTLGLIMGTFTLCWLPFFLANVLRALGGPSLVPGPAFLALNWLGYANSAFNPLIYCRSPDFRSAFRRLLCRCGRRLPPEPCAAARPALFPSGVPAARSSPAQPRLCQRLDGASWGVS

[10] = target: Sigma non-opioid intracellular receptor 1 (Homo sapiens, UniProt Q99720); conditions: Compound concentration 10.0 uM
Sigma non-opioid intracellular receptor 1, sequence (Q99720 whole entry): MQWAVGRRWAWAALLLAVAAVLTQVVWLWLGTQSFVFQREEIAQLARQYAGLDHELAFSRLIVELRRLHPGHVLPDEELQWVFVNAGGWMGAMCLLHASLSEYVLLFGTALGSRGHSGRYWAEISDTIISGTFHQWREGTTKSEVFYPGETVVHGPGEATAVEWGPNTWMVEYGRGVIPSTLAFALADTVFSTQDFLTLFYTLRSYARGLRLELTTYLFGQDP

[11] = GPCRScan assay: inhibition of GABA/PBR; parameters: species or system Rattus norvegicus; radioligand conc. used [nm] 0.3 – 2.0, parental cells brain tissue
[12] = target: Casein kinase II subunit alpha' (Homo sapiens) (UniProt P19784); assay: CSNK2A2 SGC Tm panel (DSF)
[13] = target: Muscarinic acetylcholine receptor M1 (Homo sapiens) (UniProt P11229); conditions: Compound concentration 10.0 uM
Muscarinic acetylcholine receptor M1 (Homo sapiens), sequence (P11229 whole entry): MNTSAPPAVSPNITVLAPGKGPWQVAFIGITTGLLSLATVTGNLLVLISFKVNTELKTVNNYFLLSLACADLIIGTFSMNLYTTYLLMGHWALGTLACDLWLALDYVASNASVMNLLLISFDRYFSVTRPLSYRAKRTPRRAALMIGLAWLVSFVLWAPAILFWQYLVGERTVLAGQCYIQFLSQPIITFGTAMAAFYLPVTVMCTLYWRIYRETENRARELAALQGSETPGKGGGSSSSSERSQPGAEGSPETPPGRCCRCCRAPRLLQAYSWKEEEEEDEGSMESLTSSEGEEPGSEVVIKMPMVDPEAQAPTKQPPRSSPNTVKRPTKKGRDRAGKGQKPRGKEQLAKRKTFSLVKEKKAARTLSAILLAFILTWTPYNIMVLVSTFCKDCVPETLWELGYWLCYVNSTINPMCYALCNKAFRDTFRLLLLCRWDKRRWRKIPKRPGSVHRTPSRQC

Chromodomain-helicase-DNA-binding protein 4, sequence (Q14839 whole entry): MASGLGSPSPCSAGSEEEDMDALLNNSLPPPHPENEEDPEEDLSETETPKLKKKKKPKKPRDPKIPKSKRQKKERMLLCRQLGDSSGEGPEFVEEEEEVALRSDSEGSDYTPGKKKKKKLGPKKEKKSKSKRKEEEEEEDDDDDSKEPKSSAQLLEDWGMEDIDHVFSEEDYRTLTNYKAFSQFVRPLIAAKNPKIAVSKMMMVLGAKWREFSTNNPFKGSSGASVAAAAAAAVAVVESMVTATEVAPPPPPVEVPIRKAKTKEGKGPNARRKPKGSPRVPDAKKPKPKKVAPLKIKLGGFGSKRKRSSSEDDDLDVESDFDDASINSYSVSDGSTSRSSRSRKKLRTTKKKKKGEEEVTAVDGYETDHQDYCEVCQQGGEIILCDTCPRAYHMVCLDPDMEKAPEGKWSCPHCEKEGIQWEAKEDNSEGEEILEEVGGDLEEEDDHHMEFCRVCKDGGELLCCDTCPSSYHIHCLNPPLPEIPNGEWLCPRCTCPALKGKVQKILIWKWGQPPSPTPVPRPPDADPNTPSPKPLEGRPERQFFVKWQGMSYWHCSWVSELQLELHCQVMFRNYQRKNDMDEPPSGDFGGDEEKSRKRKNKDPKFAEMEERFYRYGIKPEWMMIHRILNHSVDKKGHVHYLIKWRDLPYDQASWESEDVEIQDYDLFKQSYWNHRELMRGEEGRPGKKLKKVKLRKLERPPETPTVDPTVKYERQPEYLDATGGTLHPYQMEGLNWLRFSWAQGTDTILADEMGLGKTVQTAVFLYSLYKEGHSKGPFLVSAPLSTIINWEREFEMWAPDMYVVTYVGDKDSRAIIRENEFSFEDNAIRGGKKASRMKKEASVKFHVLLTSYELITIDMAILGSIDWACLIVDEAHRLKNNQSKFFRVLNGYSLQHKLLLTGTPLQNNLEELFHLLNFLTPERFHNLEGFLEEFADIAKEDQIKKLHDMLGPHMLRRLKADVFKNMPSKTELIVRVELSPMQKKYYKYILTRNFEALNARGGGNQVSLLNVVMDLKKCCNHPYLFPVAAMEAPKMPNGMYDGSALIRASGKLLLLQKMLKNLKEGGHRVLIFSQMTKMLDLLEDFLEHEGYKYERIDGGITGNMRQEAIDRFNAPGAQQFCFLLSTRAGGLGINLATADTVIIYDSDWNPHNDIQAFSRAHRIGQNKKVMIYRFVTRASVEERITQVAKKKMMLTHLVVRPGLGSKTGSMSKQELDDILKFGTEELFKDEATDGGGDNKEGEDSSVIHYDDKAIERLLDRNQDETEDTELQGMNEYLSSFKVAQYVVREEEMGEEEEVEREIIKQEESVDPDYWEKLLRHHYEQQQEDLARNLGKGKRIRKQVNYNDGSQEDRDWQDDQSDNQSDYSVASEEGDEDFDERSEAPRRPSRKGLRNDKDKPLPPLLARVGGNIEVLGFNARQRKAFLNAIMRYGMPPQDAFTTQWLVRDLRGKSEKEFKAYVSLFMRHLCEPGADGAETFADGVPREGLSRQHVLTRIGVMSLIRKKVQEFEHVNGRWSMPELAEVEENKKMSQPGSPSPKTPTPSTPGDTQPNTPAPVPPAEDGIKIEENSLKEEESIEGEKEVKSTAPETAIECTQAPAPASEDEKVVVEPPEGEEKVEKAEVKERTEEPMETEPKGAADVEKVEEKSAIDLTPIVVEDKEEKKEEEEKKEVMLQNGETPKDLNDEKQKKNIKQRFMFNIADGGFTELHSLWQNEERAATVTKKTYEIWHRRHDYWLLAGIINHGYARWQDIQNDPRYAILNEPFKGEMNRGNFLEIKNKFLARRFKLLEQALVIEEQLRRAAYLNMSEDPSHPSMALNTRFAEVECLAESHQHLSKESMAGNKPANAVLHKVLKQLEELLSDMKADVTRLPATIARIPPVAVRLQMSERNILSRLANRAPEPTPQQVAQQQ

Row | IC50 [1] | delta Tm Staurosporine positive control [2] | ΔTm [2] | delta Tm Staurosporine positive control [3] | ΔTm ([3]; Compound concentration 10.0 uM) | delta Tm Staurosporine positive control [4] | ΔTm [4] | delta Tm Staurosporine positive control [5] | ΔTm [5] | delta Tm Staurosporine positive control [6] | ΔTm [6] | inhibition [7] [%] | inhibition [8] [%] | inhibition [9] [%] | inhibition [10] [%] | Ki [11] [nM] | pKi [11] | delta Tm Staurosporine positive control [12] | ΔTm ([12]; Compound concentration 10.0 uM) | inhibition [13] [%] | Compound
1 | > 200000 nM (not active) | 6.46 | 1.45 | 4.26 | 0.0547 | 8.71 | -0.217 | 17.6 | 0.116 | 6.68 | 0.168 | 3.33 | -0.33 | -3.49 | 1.62 | – | – | – | – | – | COC[C@H](NC(=O)c1ccn(S(C)(=O)=O)c1)C(=O)Nc1nc(-c2cccc(-c3ccn(C)n3)c2)cs1
2 | – | 6.46 | 1.82 | – | – | 8.71 | -0.0366 | 17.6 | 0.698 | 6.68 | 0.97 | 23 | – | – | 83.2 | 1580 | 5.81 | 4.26 | -0.217 | 23.2 | C[C@H](NC(=O)c1cn(C2(C#N)CC2)cn1)C(=O)Nc1nc(-c2cccc(-c3ccn(C)n3)c2)cs1
